Data as given in US20220023281A1, “HETEROCYCLIC SPIRO-COMPOUNDS AS AM2 RECEPTOR INHIBITORS” (THE UNIVERSITY OF SHEFFIELD, priority 2018, published 2022).

Target: T1, AM2 receptor-expressing cells (1321N1 cells transfected with CALCRL+RAMP3) (Homo sapiens, UniProt O60896+Q16602)
T1 construct: host or cells: 1321N1 cells
Assay: AM2 receptor inhibition, LANCE cAMP agonist-antagonist competition assay (AM2 D2 protocol)
Assay type: cell-based
Settings: inhibition of AM induced cAMP in 1321N1 cells expressing CALCRL+RAMP3; read-out: AM2 D2 protocol: pIC50 (converted)
Protocol: Compounds were assessed for their ability to inhibit ligand-induced elevations of cAMP, using the Perkin Elmer LANCE cAMP assay using commercially-available cells expressing a specific receptor of interest using the following general procedure:
Compounds were prepared in dimethyl sulfoxide (DMSO—99.9% pure) (Sigma Aldrich, Cat #: D4540) added to powder stocks to produce a 20 mM solution (100% DMSO) that was sonicated at 37° C. for 10 minutes to fully dissolve the compounds. The 20 mM stocks were diluted further in DMSO to produce a 2 mM solution that was sonicated at 37° C. for 10 minutes. 2 mM stocks were dissolved in assay/stimulation buffer to produce a 400 μM solution that was sonicated at 37° C. for 10 minutes for all cAMP assays. All stocks were stored at −20° C. Then serial dilution (Dilution factor: 10) was performed to achieve the desire experimental concentrations.
Competition assays were performed according to the manufactures instructions using LANCE® TR-FRET cAMP assay kit (Perkin Elmer, Cat #: AD0264). Serial dilutions (3 μl/well) of the molecules were plated in a 384-well OptiPlate (Perkin Elmer, Cat #: 6007299) in duplicates. Appropriate controls (100% stimulation: Forskolin and 0% stimulation: Vehicle control) (6 μl/well) were included in each plate for data normalization. Following the compound addition, 6 μl of G-protein coupled receptor overexpressing cells/Alexa Fluor antibody solution (1:100 dilution) was added in each well at a desired density of 2500 cells/well. The overexpressing cell lines were purchased from DiscoveRx, Birmingham, UK. After spinning the plate at 1000 rpm for 1 minute and vortexing briefly, the cells were pre-incubated with the compounds for 30 minutes at room temperature (covered). Then 3 μl of the equivalent peptide ligand (EC50 dose) was added to all the wells except vehicle and forskolin controls. The plate were then spun down at 1000 rpm for 1 minute and once finished they were vortexed briefly and covered. Cells were stimulated in the presence of the ligands for 15 minutes at room temperature. After stimulation 12 μl of detection mix (Europium-Chelate streptavidin/biotinylated cAMP tracer solution) was added to all wells and incubated for 60 minutes at room temperature. The plate was then read on the Enspire multimode Plate reader (Perkin Elmer), at; 320/340 nm excitation and 615/665 nm emission was recorded.
Assay/Stimulation Buffer (30 mL)—pH 7.4 • 28 mL Hank's Balanced salt solution (+MgCl2, +CaCl2))—(Thermo Fisher Cat #:14170112) • 150 μl HEPES (1M)—(Thermo Fisher Cat #:15630080) • 400 μl Stabilizer (DTPA) Purified BSA (7.5%)—(Perkin Elmer, Cat #: CR84-100) • 60 μl IBMX (250 mM)—(Sigma Aldrich, Cat #: 15879)
The ability of a compound to inhibit the AM induced cAMP activation in AM2 receptor-expressing cells (1321N1 cells transfected with CALCRL+RAMP3, sourced from DiscoverX catalogue number 95-0169C6) was assessed using the protocol above.

T1 sequence (Q16602 23-461): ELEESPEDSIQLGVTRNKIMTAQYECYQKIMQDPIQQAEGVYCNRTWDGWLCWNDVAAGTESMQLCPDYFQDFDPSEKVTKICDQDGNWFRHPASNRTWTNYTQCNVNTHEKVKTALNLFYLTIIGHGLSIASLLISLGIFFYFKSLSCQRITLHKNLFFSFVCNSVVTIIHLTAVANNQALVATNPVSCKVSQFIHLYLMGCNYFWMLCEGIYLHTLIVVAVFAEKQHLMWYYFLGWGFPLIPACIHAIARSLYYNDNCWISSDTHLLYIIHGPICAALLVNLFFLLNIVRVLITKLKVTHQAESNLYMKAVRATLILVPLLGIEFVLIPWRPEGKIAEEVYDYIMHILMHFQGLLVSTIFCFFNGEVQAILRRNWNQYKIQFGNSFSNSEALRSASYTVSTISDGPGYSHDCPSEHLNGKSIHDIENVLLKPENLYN
T1 sequence (O60896 24-148): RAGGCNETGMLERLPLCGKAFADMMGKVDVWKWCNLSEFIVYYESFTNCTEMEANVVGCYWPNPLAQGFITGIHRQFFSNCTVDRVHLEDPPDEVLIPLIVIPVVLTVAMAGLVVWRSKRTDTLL

Compound | IC50 [µM]
C[C@@H]1CNC[C@@H](N(CC(=O)Nc2ccc3c(c2)C[C@@]2(C3)C(=O)Nc3ncccc32)C(=O)C(C)(C)C)C1 (relative stereo) [Example 27, N-((3S*,5S*)-5-Methylpiperidin-3-yl)-N-(2-oxo-2-(((R)-2′-oxo-1,1′,2′,3-tetrahydrospiro[indene-2,3′-pyrrolo[2,3-b]pyridin]-5-yl)amino)ethyl)pivalamide] | 0.0513
C[C@H]1CC[C@H](N(CC(=O)Nc2ccc3c(c2)C[C@@]2(C3)C(=O)Nc3ncccc32)C(=O)C(C)(C)C)CN1 (relative stereo) [Example 28, N-((3S*,6S*)-6-Methylpiperidin-3-yl)-N-(2-oxo-2-(((R)-2′-oxo-1,1′,2′,3-tetrahydrospiro[indene-3′-pyrrolo[2,3-b]pyridin]-5-yl)amino)ethyl)pivalamide] | 0.186
C[C@@H]1CC[C@H](N(CC(=O)Nc2ccc3c(c2)C[C@@]2(C3)C(=O)Nc3ncccc32)C(=O)C(C)(C)C)CN1 (relative stereo) [Example 29, N-((3S*,6R*)-6-Methylpiperidin-3-yl)-N-(2-oxo-2-(((R)-2′-oxo-1,1′,2′,3-tetrahydrospiro[indene-2,3′-pyrrolo[2,3-b]pyridin]-5-yl)amino)ethyl)pivalamide] | 0.178
CC(C)(C)C(=O)N(CC(=O)Nc1ccc2c(c1)C[C@@]1(C2)C(=O)Nc2ncccc21)C1CCC2CCC1N2 (single isomer, unassigned) [Example 31A] | 0.316
CC(C)(C)C(=O)N(CC(=O)Nc1ccc2c(c1)C[C@@]1(C2)C(=O)Nc2ncccc21)C1CCC2CCC1N2 (single isomer, unassigned) [Example 31B] | 0.2
CC(C)(C)C(=O)N(CC(=O)Nc1ccc2c(c1)CC1(C2)C(=O)Nc2ncccc21)C1CCCNC1 (stereo not drawn) [Example 1, N-(2-Oxo-2-((2′-oxo-1,1′,2′,3-tetrahydrospiro[indene-2,3′-pyrrolo[2,3-b]pyridin]-5-yl)amino)ethyl)-N-(piperidin-3-yl)pivalamide] | 0.0145
CC(C)(C)C(=O)N(CC(=O)Nc1ccc2c(c1)C[C@@]1(C2)C(=O)Nc2ncccc21)[C@H]1CCCNC1 [Example 2, N-(2-Oxo-2-(((R)-2′-oxo-1,1′,2′,3-tetrahydrospiro[indene-2,3′-pyrrolo[2,3-b]pyridin]-5-yl)amino)ethyl)-N—((S)-piperidin-3-yl)pivalamide] | 0.00302
CC(C)(C)C(=O)N(CC(=O)Nc1ccc2c(c1)C[C@@]1(C2)C(=O)Nc2ncccc21)[C@@H]1CCCNC1 [Example 3, N-(2-Oxo-2-(((R)-2′-oxo-1,1′,2′,3-tetrahydrospiro[indene-2,3′-pyrrolo[2,3-b]pyridin]-5-yl)amino)ethyl)-N—((R)-piperidin-3-yl)pivalamide] | 0.741
O=C(CN(C(=O)C12CC(C1)C2)[C@H]1CCCNC1)Nc1ccc2c(c1)C[C@@]1(C2)C(=O)Nc2ncccc21 [Example 4, N-(2-Oxo-2-(((R)-2′-oxo-1,1′,2′,3-tetrahydrospiro[indene-2,3′-pyrrolo [2,3-b]pyridin]-5-yl)amino)ethyl)-N—((S)-piperidin-3-yl)bicyclo[1.1.1]pentane-1-carboxamide] | 0.251
O=C(CN(C(=O)C1CCCC1)[C@H]1CCCNC1)Nc1ccc2c(c1)C[C@@]1(C2)C(=O)Nc2ncccc21 [Example 5, N-(2-Oxo-2-(((R)-2′-oxo-1,1′,2′,3-tetrahydrospiro[indene-2,3′-pyrrolo[2,3-b]pyridin]-5-yl)amino)ethyl)-N—((S)-piperidin-3-yl)cyclopentanecarboxamide] | 0.17
CC(C)(F)C(=O)N(CC(=O)Nc1ccc2c(c1)C[C@@]1(C2)C(=O)Nc2ncccc21)[C@H]1CCCNC1 [Example 6, 2-Fluoro-2-methyl-N-[2-oxo-2-[[(3R)-2-oxospiro[1H-pyrrolo[2,3-b]pyridine-3,2′-indane]-5′-yl]amino]ethyl]-N-[(3S)-3-piperidyl]propanamide] | 8.32
O=C(CN(C(=O)C1(C(F)(F)F)CC1)[C@H]1CCCNC1)Nc1ccc2c(c1)C[C@@]1(C2)C(=O)Nc2ncccc21 [Example 7, N-(2-Oxo-2-(((R)-2′-oxo-1,1′,2′,3-tetrahydrospiro[indene-2,3′-pyrrolo[2,3-b]pyridin]-5-yl)amino)ethyl)-N—((S)-piperidin-3-yl)-1-(trifluoromethyl)cyclopropanecarboxamide] | 0.955
CC1(C(=O)N(CC(=O)Nc2ccc3c(c2)C[C@@]2(C3)C(=O)Nc3ncccc32)[C@H]2CCCNC2)CCC1 [Example 8, 1-Methyl-N-(2-oxo-2-(((R)-2′-oxo-1,1′,2′,3-tetrahydrospiro[indene-2,3′-pyrrolo[2,3-b]pyridin]-5-yl)amino)ethyl)-N—((S)-piperidin-3-yl)cyclobutanecarboxamide] | 0.145
CC(C)(C(=O)N(CC(=O)Nc1ccc2c(c1)C[C@@]1(C2)C(=O)Nc2ncccc21)[C@H]1CCCNC1)C(F)(F)F [Example 9, 3,3,3-Trifluoro-2,2-dimethyl-N-(2-oxo-2-(((R)-2′-oxo-1,1′,2′,3-tetrahydrospiro[indene-2,3′-pyrrolo[2,3-b]pyridin]-5-yl)amino)ethyl)-N—((S)-piperidin-3-yl)propanamide] | 0.0437
CC(C)(C#N)C(=O)N(CC(=O)Nc1ccc2c(c1)C[C@@]1(C2)C(=O)Nc2ncccc21)[C@H]1CCCNC1 [Example 10, 2-Cyano-2-methyl-N-(2-oxo-2-(((R)-2′-oxo-1,1′,2′,3-tetrahydrospiro[indene-2,3′-pyrrolo[2,3-b]pyridin]-5-yl)amino)ethyl)-N—((S)-piperidin-3-yl)propenamide] | 0.0501
COC(C)(C)C(=O)N(CC(=O)Nc1ccc2c(c1)C[C@@]1(C2)C(=O)Nc2ncccc21)[C@H]1CCCNC1 [Example 11, 2-Methoxy-2-methyl-N-(2-oxo-2-(((R)-2′-oxo-1,1′,2′,3-tetrahydrospiro[indene-2,3′-pyrrolo[2,3-b]pyridin]-5-yl)amino)ethyl)-N—((S)-piperidin-3-yl)propenamide] | 0.0851
O=C(CN(C(=O)C1(C(F)(F)F)CCC1)[C@H]1CCCNC1)Nc1ccc2c(c1)C[C@@]1(C2)C(=O)Nc2ncccc21 [Example 12, N-(2-Oxo-2-(((R)-2′-oxo-1,1′,2′,3-tetrahydrospiro[indene-2,3′-pyrrolo[2,3-b]pyridin]-5-yl)amino)ethyl)-N—((S)-piperidin-3-yl)-1-(trifluoromethyl)cyclobutanecarboxamide] | 0.263
CC(C)(CC(F)(F)F)C(=O)N(CC(=O)Nc1ccc2c(c1)C[C@@]1(C2)C(=O)Nc2ncccc21)[C@H]1CCCNC1 [Example 13, 4,4,4-Trifluoro-2,2-dimethyl-N-(2-oxo-2-(((R)-2′-oxo-1,1′,2′,3-tetrahydrospiro[indene-2,3′-pyrrolo[2,3-b]pyridin]-5-yl)amino)ethyl)-N—((S)-piperidin-3-yl)butanamide] | 0.0631
CCC1(C(=O)N(CC(=O)Nc2ccc3c(c2)C[C@@]2(C3)C(=O)Nc3ncccc32)[C@H]2CCCNC2)CCOCC1 [Example 14, 4-Ethyl-N-(2-oxo-2-(((R)-2′-oxo-1,1′,2′,3-tetrahydrospiro[indene-2,3′-pyrrolo[2,3-b]pyridin]-5-yl)amino)ethyl)-N—((S)-piperidin-3-yl)tetrahydro-2H-pyran-4-carboxamide] | 0.288
CC1(C(=O)N(CC(=O)Nc2ccc3c(c2)C[C@@]2(C3)C(=O)Nc3ncccc32)[C@H]2CCCNC2)CCNCC1 [Example 15, 4-Methyl-N-(2-oxo-2-(((R)-2′-oxo-1,1′,2′,3-tetrahydrospiro[indene-2,3′-pyrrolo[2,3-b]pyridin]-5-yl)amino)ethyl)-N—((S)-piperidin-3-yl)piperidine-4-carboxamide] | 0.0501
CC(=O)N1CCC(C)(C(=O)N(CC(=O)Nc2ccc3c(c2)C[C@@]2(C3)C(=O)Nc3ncccc32)[C@H]2CCCNC2)CC1 [Example 16, 1-Acetyl-4-methyl-N-(2-oxo-2-(((R)-2′-oxo-1,1′,2′,3-tetrahydrospiro[indene-2,3′-pyrrolo[2,3-b]pyridin]-5-yl)amino)ethyl)-N—((S)-piperidin-3-yl)piperidine-4-carboxamide] | 0.112
